“Also recorded” adds a separate entry of the source.
Tests used:
USP7 catalytic domain = USP7 catalytic domain (Homo sapiens, UniProt Q93009); assay: Ub-Rho110 DUB assay, Table 2, USP7 catalytic domain; type: biochemical; conditions: read-out: Ub-Rho110 IC50, USP7 cat
Method: Biochemical USP7 assays using Ubiquitin-Rho110 as a substrate: The final assay conditions were as follows: The Reaction Buffer consisted of: 50 mM Tris (pH 7.5), 0.01% (v/v) Triton X-100, 2.5 mM Dithiothreitol, 0.1% (w/v) bovine gamma globulin (Sigma cat #G5009-25G); USP7, full-length, native C-Terminus, 0.2 nM; the substrate, Ubiquitin-Rho110 (Boston Biochem cat #U-555), 1 uM. Reactions were carried out for 1 hour at room temperature, in black 20 μL volume polystyrene ProxiPlate 384 F Plus® (PerkinElmer cat #6008260).
Test compounds, including a control USP7 inhibitor (Ub-aldehyde, Boston Biochem cat #U-201) were serially diluted in DMSO, in 384 well clear V-bottom polypropylene plates (Greiner cat #781280). Compounds in DMSO were diluted 10-fold into Reaction Buffer, to achieve 3-fold the final desired concentration. The substrate, Ubiquitin-Rho110 (Boston Biochem cat #U-555), was prepared at 3 μM (3-fold the final concentration) and 5 ul was dispensed into the reaction plate. 5 ul of the compounds (diluted in Reaction Buffer at 3-fold the final concentration) were transferred to the reaction plate. 5 ul of 0.6 nM USP7 (diluted in Reaction Buffer at 3-fold the final concentration) was transferred to the reaction plate to initiate the reaction. After 1 hour incubation at room temperature the reaction was quenched by the addition of 5 ul of 400 mM acetic acid. The enzymatic product was measured by quantifying the fluorescence signal of cleaved Rhodamine-110 using excitation at 485 nm and emission at 535 nm. When pre-incubation of USP7 with compounds was required, the order of addition of reagents was modified to pre-mix the compounds with USP7 (with a 1 hour incubation period), prior to the addition of the substrate and the initiation of the reaction period. Percentage inhibition values were calculated relative to a no enzyme control and a uninhibited enzyme control. Curve fitting and IC50 calculations were carried out using Genedata Screener software.

[1] = test system: MDM2 in MCF7 breast cancer cells; assay: MDM2 turnover in MCF7 cells with cycloheximide (FIG. 3A); type: cell-based; conditions: 15 μM, in the presence of cycloheximide (CHX)
Method: In 24-well plates, 0.15×10^6 MCF-7 cells were treated for a total of 8 h with DMSO or compounds (15 μM). During that 8 h, cycloheximide (CHX) was added for the indicated times prior to harvest.

[2] = test system: U2Os p53 WT osteosarcoma cells; assay: Incucyte cell proliferation and caspase activity, U2Os (FIG. 11, 16); type: cell-based; conditions: U2Os p53 WT compared to SaOs p53 null cells; compared to 89
Method: 2,500-5,000 cells were seeded in 1-well of a 96-well plate (Corning; 3904). The following day, the media was changed from normal (10%) to low serum (0.5%) containing vehicle (DMSO) or compounds. 16-24 h later FBS was added to each well to bring serum levels back to normal (10%). Cells were then allowed to grow for 2 days. All treatments were done in triplicate. The day after cells were seeded, the media was changed to low serum media containing 2 μM CellEvent Caspase 3/7 reagent (Life Technologies; C10423) and compounds. The plates were placed in an IncuCyte (Essen Bioscience, Inc.) live cell imager and scanning was started 15-20 mins after. IncuCyte™ ZOOM facilitates live-cell monitoring via customized imaging protocols. Images were taken every 2 h for at least 3 days, using a 10× objective. Phase contrast was used to measure cell confluency/density while green fluorescence was used to measure caspase activity. The images were analyzed using IncuCyte software (Basic Analysis parameters) and a ratio of caspase activity to cell density was determined.

[3] = target: T1, USP7, full-length, native C-Terminus (Homo sapiens, UniProt Q93009); assay: Biochemical USP7 assay with Ubiquitin-Rho110 substrate, compounds pre-incubated with USP7 (USP7_Ub-Rho preInc); conditions: compounds pre-mixed with USP7, 1 hour incubation, before substrate; read-out: USP7 Ub-Rho preInc (IC50)
T1 construct: USP7, full-length, native C-Terminus, 0.2 nM
T1 sequence (Q93009 whole entry): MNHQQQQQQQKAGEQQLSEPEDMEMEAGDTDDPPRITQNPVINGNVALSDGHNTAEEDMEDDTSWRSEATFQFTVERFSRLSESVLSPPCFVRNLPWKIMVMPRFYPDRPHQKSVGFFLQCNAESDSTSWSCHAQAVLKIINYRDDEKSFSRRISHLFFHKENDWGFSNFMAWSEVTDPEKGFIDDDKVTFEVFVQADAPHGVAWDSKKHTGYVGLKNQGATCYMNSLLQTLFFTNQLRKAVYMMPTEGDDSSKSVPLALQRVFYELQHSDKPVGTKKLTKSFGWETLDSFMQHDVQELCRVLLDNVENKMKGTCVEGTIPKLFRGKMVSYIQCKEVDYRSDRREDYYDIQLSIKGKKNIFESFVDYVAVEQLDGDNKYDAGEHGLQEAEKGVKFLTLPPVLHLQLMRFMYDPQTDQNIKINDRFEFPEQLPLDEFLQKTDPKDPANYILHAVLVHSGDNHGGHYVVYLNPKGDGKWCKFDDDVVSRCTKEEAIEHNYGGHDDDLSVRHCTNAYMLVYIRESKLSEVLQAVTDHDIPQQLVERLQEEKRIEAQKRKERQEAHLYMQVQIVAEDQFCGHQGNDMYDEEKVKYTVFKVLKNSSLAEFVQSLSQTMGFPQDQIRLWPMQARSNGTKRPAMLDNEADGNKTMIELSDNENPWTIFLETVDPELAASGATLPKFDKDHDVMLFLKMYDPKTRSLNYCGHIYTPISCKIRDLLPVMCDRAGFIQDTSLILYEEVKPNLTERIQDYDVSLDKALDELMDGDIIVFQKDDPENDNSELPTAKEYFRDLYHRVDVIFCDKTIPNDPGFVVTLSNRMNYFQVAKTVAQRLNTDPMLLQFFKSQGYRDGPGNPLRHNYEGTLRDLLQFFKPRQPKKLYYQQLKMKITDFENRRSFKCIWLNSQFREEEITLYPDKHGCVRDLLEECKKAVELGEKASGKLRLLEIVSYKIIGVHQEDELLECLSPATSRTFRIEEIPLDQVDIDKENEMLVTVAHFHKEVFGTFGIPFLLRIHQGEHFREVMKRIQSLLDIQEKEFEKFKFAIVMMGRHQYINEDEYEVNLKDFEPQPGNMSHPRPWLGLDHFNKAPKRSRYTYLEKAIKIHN
Method in brief: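 Full-length USP7 (0.2 nM) cleaving Ubiquitin-Rho110 (1 uM) in pH 7.5 Tris buffer with DTT, 1 h at room temperature, acetic-acid quenched; Rho110 fluorescence at 485/535 nm. Pre-incubation variant: compound and USP7 mixed 1 h before substrate addition. IC50 from % inhibition versus no-enzyme and uninhibited controls.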

[4] = test system: KMS-21BM and KMS-28PE multiple myeloma cells; assay: Cell Titer Glo viability of multiple myeloma cells (FIG. 13A); type: cell-based; conditions: compared to 89
Method: Seventy two hours after compounds were added, CellTitre Glo (CTG) reagent was added following the protocol provided by the manufacturer (Promega). In the experiment to test compound dependency on USP7, 3× more USP7 null cells were plated per well (7,500 vs. 2,500 for wild-type (WT) cells), given the slower proliferation of USP7 null cells. For the multiple myeloma experiment, cells seeded in low serum and treated with compounds immediately. Twenty four hours later, serum was added back to normal levels. CTG assay was done 24 h later i.e. 48 h after compounds were added instead of 72 hrs later for the adherent cells.

endogenous USP7 = target: T2, endogenous USP7 (Homo sapiens, UniProt Q93009); assay: Activity-based profiling of deubiquitinases with HA-tagged ubiquitin probes, western blot (FIG. 5, 6); type: biochemical; conditions: 15 μM, 293T cell lysate
T2 construct: endogenous in cells; host or cells: 293T cell lysate
T2 sequence (Q93009 whole entry): as above
Method: 293T cells at 80% confluency are harvested by rinsing the plate one time with 10 ml PBS followed by scraping. Cells are cleared by spinning them for 3 min at 350 g at 4° C. and the pellet is flash-frozen in liquid nitrogen and stored at −80° C. until lysis. Frozen cells are lysed by quickly re-thawing them in Buffer A (50 mM Tris-HCl pH 7.5, 250 mM Sucrose, 5 mM TCEP, 2 mM ATP, 50 μM phenylmethylsulfonyl fluoride (PMSF), 120 mM NaCl, 5 mM MgCl2) and the lysate is cleared by centrifugation by spinning at 18,000 g at 4° C. […] Subsequently, the 4 samples are all incubated with 6.6 μg/ml of either one of the following activity-based DUB probes (the same probe for each of the 4 samples): HA-tagged ubiquitin vinyl sulfone (Boston Biochem, Cambridge, Mass.), HA-tagged ubiquitin propargylamine (UbiQ Bio BV, Amsterdam, The Netherlands) or HA-tagged ubiquitin vinylmethyl ester (UbiQ Bio BV, Amsterdam, The Netherlands), 1200 rpm, at 25° C., for 1 hr. The reaction is terminated by adding a 20% SDS solution to a final concentration of 0.4% for at least 30 min at room temperature, rotating. Subsequently, the reacted lysate is diluted 10× with Buffer B (50 mM Tris-HCl pH 7.5, 150 mM NaCl, 5 mM EDTA, protease inhibitor cocktail EDTA-free (Roche, Mannheim, Germany), 50 μM PMSF, 0.5% NP-40). 60-100 μl slurry depending on input protein amount of pre-equilibrated anti-HA affinity matrix (Roche, Mannheim, Germany) are added and HA-tagged proteins are immunopurified with this matrix by rotating the samples over night at 4° C. The next day the beads are washed with the following buffers in this order: three times ice-cold Buffer B, one time ice-cold Buffer B NP-40 free, and three times ice-cold 15 mM TEAB pH 8.5. Spins between washes are performed at 2000 g and 4° C. […]

Sequence of USP7 catalytic domain (Q93009 214-521 limits assumed): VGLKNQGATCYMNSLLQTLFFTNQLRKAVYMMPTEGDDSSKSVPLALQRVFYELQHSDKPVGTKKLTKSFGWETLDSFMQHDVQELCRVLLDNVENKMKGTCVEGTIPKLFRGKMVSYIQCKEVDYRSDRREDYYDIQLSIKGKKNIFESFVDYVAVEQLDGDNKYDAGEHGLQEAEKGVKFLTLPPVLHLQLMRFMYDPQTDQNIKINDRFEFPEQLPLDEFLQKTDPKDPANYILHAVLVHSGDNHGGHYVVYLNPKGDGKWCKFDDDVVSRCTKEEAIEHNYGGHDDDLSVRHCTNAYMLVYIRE

SMILES: CCc1c(-c2ccc3[nH]ncc3c2)cnc(N)c1-c1ccc(O)cc1 [Compound 88, 4-[2-amino-4-ethyl-5-(1H-indazol-5-yl)-3-pyridyl]phenol]
- IC50 (USP7 catalytic domain): 430 nM
- destabilizing effect on MDM2 (western blot) [1]: destabilizing effects
- cell viability (Incucyte proliferation and caspase activity) [2]: decreases cell viability
- IC50 [3]: 2100 nM
- cell viability (Cell Titer Glo signal) [4]: decrease in cell viability
- selective antagonism of endogenous USP7 over other DUBs (endogenous USP7; evaluated by western blotting): selective DUB inhibition; also recorded: selectively antagonizes endogenous USP7 over other DUBs
- HA-probe-conjugated band corresponding to USP7 (endogenous USP7; western blot): decreased
